Measurements: ChEMBL document CHEMBL1201862, “PubChem BioAssay data set” (2004)
Active and inactive are the calls of the source.

Key:
Format in all cases: functional
[1] = target: T1, Replicative DNA helicase DnaB (Mycobacterium tuberculosis, UniProt P9WMR3); test: DnaB intein splicing inhibitors, dose response, biochemical, cell-free fluorescence (AID 449749)
T1 sequence (P9WMR3 whole entry): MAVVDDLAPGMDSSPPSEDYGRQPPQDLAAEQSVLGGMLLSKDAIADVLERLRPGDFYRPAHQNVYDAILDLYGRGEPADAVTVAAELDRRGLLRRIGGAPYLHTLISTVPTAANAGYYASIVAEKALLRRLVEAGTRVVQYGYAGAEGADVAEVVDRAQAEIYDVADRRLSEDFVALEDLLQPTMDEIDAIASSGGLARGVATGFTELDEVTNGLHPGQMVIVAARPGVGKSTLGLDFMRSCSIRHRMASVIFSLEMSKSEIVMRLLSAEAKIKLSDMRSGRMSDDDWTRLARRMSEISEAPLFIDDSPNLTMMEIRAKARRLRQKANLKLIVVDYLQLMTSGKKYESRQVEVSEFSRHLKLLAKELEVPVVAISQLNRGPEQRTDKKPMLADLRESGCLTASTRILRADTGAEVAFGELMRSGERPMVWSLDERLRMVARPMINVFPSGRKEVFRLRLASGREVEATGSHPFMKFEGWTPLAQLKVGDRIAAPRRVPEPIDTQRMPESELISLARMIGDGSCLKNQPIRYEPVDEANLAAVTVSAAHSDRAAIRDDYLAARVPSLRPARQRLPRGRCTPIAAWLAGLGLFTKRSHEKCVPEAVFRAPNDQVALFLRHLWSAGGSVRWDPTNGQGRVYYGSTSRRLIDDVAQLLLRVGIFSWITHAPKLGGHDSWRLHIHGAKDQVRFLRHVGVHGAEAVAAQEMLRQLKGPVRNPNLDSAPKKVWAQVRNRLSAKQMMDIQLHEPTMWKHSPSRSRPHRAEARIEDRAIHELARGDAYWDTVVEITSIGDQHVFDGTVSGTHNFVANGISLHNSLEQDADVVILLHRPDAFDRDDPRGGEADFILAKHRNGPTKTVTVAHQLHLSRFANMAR

[2] = target: cAMP-dependent protein kinase catalytic subunit alpha (Homo sapiens, UniProt P17612)
[3] = target: T2, Serine/threonine-protein kinase D3 (Homo sapiens, UniProt O94806);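 also: determined within a kinase panel screen, with PRKCN as the panel member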
T2 sequence (O94806 whole entry): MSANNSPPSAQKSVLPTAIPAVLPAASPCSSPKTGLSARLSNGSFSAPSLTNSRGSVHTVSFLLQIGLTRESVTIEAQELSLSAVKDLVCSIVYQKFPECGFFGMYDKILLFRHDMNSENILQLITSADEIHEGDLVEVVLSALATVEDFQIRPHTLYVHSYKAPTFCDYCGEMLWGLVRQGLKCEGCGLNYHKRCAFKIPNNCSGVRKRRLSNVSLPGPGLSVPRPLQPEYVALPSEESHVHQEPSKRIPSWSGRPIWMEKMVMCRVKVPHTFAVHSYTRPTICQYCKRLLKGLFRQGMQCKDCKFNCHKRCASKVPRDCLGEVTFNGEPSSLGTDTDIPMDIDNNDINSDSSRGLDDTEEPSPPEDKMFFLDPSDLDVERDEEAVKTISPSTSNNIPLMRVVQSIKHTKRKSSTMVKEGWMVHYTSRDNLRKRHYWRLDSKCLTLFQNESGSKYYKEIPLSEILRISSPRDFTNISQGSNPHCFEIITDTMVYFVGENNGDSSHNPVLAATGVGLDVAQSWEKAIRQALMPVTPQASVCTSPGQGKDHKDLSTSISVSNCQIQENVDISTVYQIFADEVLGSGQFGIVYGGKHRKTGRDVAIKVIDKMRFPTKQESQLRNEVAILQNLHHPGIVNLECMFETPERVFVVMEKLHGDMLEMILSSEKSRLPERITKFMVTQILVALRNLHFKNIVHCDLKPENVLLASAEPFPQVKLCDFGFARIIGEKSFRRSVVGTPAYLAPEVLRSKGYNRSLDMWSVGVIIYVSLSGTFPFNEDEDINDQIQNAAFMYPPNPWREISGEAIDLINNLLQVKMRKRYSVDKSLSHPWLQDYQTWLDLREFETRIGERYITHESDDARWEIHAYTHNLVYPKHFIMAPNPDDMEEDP

[4] = target: Protein kinase C theta type (Homo sapiens, UniProt Q04759); test: Navigating the Kinome. Panel member name: PRKCQ
Chain of Protein kinase C theta type (Q04759 whole entry): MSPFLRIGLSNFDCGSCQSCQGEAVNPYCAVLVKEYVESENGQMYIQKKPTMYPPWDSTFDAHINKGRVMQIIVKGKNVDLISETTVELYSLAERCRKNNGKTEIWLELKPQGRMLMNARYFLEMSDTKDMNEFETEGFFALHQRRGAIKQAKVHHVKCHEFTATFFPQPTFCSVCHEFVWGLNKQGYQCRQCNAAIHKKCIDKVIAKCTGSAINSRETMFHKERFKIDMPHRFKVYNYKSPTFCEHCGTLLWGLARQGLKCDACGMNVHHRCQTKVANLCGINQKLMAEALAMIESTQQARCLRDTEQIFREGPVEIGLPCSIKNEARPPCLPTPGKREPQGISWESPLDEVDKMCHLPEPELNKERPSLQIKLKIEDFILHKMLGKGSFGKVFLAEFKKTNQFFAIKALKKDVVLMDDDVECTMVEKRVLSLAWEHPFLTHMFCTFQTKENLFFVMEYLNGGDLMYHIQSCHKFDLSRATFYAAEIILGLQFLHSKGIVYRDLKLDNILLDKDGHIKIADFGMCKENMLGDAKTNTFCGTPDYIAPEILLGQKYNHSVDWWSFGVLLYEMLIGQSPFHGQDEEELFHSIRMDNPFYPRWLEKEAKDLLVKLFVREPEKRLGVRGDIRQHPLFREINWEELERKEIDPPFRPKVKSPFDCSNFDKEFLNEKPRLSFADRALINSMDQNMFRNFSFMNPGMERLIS

[5] = target: Dual specificity tyrosine-phosphorylation-regulated kinase 1B (Homo sapiens, UniProt Q9Y463); test: Navigating the Kinome. Panel member name: DYRK1B
Chain of Dual specificity tyrosine-phosphorylation-regulated kinase 1B (Q9Y463 whole entry): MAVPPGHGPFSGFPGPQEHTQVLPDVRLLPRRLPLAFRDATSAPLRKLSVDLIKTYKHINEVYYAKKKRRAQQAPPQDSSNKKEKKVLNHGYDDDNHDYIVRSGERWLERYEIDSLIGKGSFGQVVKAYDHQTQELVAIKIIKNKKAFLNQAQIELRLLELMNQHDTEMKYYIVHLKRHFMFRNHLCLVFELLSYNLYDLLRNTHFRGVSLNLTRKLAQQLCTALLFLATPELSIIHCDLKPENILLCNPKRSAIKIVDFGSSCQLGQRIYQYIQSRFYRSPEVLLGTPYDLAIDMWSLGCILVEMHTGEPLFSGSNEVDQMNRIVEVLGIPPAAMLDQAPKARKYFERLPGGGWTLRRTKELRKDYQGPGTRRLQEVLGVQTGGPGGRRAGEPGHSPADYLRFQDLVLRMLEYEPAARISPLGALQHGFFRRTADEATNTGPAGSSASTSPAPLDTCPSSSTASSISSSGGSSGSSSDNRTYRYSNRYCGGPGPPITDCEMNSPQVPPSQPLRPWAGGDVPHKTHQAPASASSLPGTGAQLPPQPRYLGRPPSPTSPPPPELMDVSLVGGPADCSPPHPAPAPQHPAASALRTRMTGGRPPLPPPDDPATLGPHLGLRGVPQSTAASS

[6] = target: T3, Aurora kinase A (Homo sapiens, UniProt O14965);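 also: value from the Navigating the Kinome kinase panel profiling, panel entry STK6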
T3 sequence (O14965 whole entry): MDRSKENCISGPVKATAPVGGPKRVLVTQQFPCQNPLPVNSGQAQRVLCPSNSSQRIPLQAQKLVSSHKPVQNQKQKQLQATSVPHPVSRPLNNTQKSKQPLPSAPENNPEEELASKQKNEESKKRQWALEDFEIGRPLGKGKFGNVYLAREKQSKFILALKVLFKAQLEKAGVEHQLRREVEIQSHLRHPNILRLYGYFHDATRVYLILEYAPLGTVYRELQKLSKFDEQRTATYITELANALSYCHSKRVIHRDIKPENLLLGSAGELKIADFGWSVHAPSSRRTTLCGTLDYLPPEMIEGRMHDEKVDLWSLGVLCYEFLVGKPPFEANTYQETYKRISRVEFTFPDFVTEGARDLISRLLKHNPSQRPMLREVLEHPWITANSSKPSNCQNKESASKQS

[7] = target: Glycogen synthase kinase-3 alpha (Homo sapiens, UniProt P49840);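 also: GSK3A result taken from a broad kinome-wide kinase panel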
Chain of Glycogen synthase kinase-3 alpha (P49840 whole entry): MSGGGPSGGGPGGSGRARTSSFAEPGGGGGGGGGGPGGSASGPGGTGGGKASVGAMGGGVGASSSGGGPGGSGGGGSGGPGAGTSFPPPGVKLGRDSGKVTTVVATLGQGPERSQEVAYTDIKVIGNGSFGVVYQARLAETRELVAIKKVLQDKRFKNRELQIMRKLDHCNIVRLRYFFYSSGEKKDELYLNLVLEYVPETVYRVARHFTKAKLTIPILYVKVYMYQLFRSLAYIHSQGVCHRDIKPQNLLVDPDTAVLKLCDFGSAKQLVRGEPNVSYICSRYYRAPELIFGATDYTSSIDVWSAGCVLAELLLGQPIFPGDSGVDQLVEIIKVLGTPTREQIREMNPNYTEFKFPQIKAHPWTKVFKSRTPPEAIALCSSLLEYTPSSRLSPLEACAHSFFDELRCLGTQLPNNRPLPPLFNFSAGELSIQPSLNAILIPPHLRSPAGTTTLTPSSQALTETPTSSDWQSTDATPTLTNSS

[8] = target: Activated CDC42 kinase 1 (Homo sapiens, UniProt Q07912); test: Navigating the Kinome. Panel member name: ACK1
[9] = target: Leucine-rich repeat serine/threonine-protein kinase 2 (Homo sapiens, UniProt Q5S007);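 also: value from a broad kinome-wide panel profiling study in which LRRK2 was one of the kinases tested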
Chain of Leucine-rich repeat serine/threonine-protein kinase 2 (Q5S007 whole entry): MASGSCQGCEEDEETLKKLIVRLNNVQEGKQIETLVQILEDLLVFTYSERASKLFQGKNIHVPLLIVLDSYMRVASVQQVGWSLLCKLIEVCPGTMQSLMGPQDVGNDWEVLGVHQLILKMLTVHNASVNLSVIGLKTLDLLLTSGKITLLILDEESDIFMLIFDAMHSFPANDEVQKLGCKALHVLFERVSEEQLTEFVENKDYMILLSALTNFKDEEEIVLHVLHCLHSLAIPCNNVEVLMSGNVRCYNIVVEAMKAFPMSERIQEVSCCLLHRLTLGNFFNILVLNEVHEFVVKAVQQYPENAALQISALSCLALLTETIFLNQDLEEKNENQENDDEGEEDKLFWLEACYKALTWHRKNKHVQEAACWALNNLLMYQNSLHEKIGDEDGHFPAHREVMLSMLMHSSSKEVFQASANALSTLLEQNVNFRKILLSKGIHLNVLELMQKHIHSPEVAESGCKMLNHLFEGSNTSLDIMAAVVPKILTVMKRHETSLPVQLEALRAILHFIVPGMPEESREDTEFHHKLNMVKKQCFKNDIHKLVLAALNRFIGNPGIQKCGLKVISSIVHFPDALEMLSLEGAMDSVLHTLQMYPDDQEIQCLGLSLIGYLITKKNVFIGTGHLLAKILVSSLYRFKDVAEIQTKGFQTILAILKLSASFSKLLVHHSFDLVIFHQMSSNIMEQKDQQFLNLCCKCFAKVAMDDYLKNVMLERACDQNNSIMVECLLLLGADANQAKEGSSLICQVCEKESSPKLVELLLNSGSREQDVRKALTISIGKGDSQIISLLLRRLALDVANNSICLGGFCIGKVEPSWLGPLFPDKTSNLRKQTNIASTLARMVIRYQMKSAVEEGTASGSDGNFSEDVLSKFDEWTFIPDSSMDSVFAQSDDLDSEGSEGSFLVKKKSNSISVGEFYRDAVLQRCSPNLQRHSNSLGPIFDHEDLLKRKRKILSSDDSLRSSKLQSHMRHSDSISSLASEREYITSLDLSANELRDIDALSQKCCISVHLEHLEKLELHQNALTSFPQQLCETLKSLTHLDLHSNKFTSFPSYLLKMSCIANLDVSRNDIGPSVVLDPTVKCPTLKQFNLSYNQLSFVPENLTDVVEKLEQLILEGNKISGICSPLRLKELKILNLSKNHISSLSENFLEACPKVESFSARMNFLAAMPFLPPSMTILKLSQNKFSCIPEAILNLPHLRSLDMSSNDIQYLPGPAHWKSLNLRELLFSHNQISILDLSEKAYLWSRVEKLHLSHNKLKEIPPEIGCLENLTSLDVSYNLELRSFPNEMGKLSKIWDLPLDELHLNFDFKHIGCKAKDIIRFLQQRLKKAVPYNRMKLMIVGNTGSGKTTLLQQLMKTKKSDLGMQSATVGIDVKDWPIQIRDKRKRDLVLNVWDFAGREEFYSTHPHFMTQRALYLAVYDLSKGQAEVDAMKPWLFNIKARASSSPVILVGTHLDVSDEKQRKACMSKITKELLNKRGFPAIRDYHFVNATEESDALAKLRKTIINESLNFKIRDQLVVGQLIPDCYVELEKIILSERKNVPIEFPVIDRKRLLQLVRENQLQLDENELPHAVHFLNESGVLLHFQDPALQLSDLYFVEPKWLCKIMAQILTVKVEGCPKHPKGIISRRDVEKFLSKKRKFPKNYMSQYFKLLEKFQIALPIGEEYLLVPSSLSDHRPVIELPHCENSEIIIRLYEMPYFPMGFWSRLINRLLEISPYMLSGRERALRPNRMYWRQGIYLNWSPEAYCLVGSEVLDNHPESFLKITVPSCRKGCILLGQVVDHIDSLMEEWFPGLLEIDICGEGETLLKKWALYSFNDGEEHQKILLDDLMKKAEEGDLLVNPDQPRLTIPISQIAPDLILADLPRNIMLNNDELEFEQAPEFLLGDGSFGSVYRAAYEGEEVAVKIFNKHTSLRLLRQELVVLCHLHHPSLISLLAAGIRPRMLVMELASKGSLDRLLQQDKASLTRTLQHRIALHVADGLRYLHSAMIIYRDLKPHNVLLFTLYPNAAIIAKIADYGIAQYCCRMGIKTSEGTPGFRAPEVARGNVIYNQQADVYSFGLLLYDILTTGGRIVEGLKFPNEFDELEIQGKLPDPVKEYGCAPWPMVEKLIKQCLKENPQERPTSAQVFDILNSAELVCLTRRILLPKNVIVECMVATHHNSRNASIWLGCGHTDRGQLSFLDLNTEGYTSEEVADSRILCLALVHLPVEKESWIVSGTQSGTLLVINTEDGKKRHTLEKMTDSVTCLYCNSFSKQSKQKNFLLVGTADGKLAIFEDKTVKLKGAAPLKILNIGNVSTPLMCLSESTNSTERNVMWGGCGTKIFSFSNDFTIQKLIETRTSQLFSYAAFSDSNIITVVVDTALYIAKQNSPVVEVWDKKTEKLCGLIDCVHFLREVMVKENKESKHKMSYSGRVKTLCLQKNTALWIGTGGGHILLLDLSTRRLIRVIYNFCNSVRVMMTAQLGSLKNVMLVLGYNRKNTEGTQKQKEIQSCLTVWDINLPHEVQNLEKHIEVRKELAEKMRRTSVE

| Compound | AC50 [1] | Ki [2] | Ki [3] | Ki [4] | Ki [5] | Ki [6] | Ki [7] | Ki [8] | Ki [9] |
| --- | --- | --- | --- | --- | --- | --- | --- | --- | --- |
| O=C(Cc1ccccc1)NC1(O)C(=O)c2ccccc2C1=O | 6130 nM (active) | – | – | – | – | – | – | – | – |
| O=c1[nH]c2cc(Br)cnc2[nH]1 | – | > 50100 nM (inactive) | 20000 nM (active) | 31600 nM (active) | 10000 nM (active) | 10000 nM (active) | 63100 nM (active) | 50100 nM (active) | 3980 nM (active) |
| O=C(Nc1cccc(C(F)(F)F)n1)Nc1ccnc2cc(OC(F)F)ccc12 | – | – | > 3980 nM (inactive) | > 2510 nM (inactive) | > 2510 nM (inactive) | > 1580 nM (inactive) | 15.8 nM (active) | > 3980 nM (inactive) | > 2510 nM (inactive) |
| O=C(Nc1cccc(C(F)(F)F)n1)Nc1ccnc2cc(Cl)ccc12 | – | > 1260 nM (inactive) | > 3980 nM (inactive) | > 2510 nM (inactive) | > 2510 nM (inactive) | > 1580 nM (inactive) | 15.8 nM (active) | > 3980 nM (inactive) | > 2510 nM (inactive) |
| CCC1CC(NS(=O)(=O)C2CC2)CC1c1ncc2cnc3[nH]ccc3n12 (centres undefined) | – | 200 nM (active) | > 3980 nM (inactive) | 200 nM (active) | > 2510 nM (inactive) | 1260 nM (active) | > 3980 nM (inactive) | 1580 nM (active) | 100 nM (active) |
| Cc1cc(C)c(S(=O)(=O)/N=C2\C=C(Nc3ccc(C(=O)O)cc3)C(=O)c3ccccc32)c(C)c1 | 149 nM (active) | – | – | – | – | – | – | – | – |
| COC(=O)c1nc(-c2ccc3c(n2)C(=O)C(=N)C(OC)=C3O)c(N)c(-c2ccc(OC)c(OC)c2O)c1C | > 380000 nM (inconclusive) | – | – | – | – | – | – | – | – |
